Assay results from patent US8859466B2, “Oxaspirocyclic spiro-substituted tetramic acid and tetronic acid derivatives” (Bayer CropScience AG, priority 2007, dated 2014).

experiment: Determination of the logP values by HPLC on a reverse-phase column (C 18); type: physicochemical; conditions: HPLC on a reverse-phase column (C 18); separated α/β isomers
Description: Determination of the logP Values
The logP values given in the table were determined in accordance with EEC Directive 79/831 Annex V.A8 by HPLC (high performance liquid chromatography) on a reverse-phase column (C 18). Temperature: 55° C.
Mobile phases for the determination in the acidic range (pH 3.4):
Mobile phase A: acetonitrile+1 ml of formic acid/liter. Mobile phase B: water+0.9 ml of formic acid/liter.
Gradient: from 10% mobile phase A/90% mobile phase B to 95% mobile phase A/5% mobile phase B over 4.25 min.
Calibration was carried out using unbranched alkan-2-ones (having 3 to 16 carbon atoms) with known logP values (determination of the logP values by the retention times using linear interpolation between two successive alkanones). The lambda max values were determined in the maxima of the chromatographic signals using the UV spectra from 200 nm to 400 nm.

| SMILES | log P* |
| --- | --- |
| COc1cccc(C)c1C1=C(O)C2(CCC3(CCCO3)CC2)OC1=O (single isomer, unassigned) [Example I-2-a-35] | 2.42 |
| O=C1OC2(CCC3(CCCO3)CC2)C(O)=C1c1cc(-c2ccc(Cl)cc2)ccc1Cl (stereo not shown) [Example I-2-a-20] | 3.25 |
| CCc1cc(C)cc(CC)c1C1=C(O)C2(CCC3(CCCO3)CC2)OC1=O (single isomer, unassigned) [Example I-2-a-17] | 3.47 |
| Cc1ccc(-c2ccc(F)cc2)c(C)c1C1=C(O)C2(CCC3(CCCO3)CC2)OC1=O (stereo not shown) [Example I-2-a-46] | 3.69 |
| O=C1OC2(CCC3(CCCO3)CC2)C(O)=C1c1cc(-c2ccc(F)cc2)ccc1Cl (stereo not shown) [Example I-2-a-50] | 2.91 |
| COc1cc(C)cc(C)c1C1=C(O)C2(CCC3(CCCO3)CC2)OC1=O (single isomer, unassigned) [Example I-2-a-10] | 2.28 |
| Cc1cc(C)c(C2=C(O)C3(CCC4(CCCO4)CC3)OC2=O)cc1C (single isomer, unassigned) [Example I-2-a-49] | 2.54 |
| Cc1ccc(-c2ccc(Cl)c(Cl)c2)cc1C1=C(O)C2(CCC3(CCCO3)CC2)OC1=O (stereo not shown) [Example I-2-a-13] | 4.24 |
| Cc1cc(C)c(C2=C(O)C3(CCC4(CCCO4)CC3)OC2=O)c(C)c1 (single isomer, unassigned) [Example I-2-a-4] | 2.52 |
| CCc1cc(Cl)c(C2=C(O)C3(CCC4(CCCO4)CC3)OC2=O)c(Br)c1 (single isomer, unassigned) [Example I-2-a-38] | 2.79 |
| Cc1ccc(-c2ccc(Cl)cc2)cc1C1=C(O)C2(CCC3(CCCO3)CC2)OC1=O (stereo not shown) [Example I-2-a-24] | 3.32 |
| Cc1cc(C)c(-c2ccc(Cl)cc2)cc1C1=C(O)C2(CCC3(CCCO3)CC2)OC1=O (stereo not shown) [Example I-2-a-26] | 4.15 |
| Cc1cc(C2=C(O)C3(CCC4(CCCO4)CC3)OC2=O)c(C)cc1Br (single isomer, unassigned) [Example I-2-a-31] | 2.77 |
| Cc1cc(C)c(-c2ccc(Cl)cc2)c(C)c1C1=C(O)C2(CCC3(CCCO3)CC2)OC1=O (single isomer, unassigned) [Example I-2-a-43] | 4.32 |
| Cc1ccc(-c2ccc(F)cc2)c(C)c1C1=C(O)C2(CCC3(CCCO3)CC2)OC1=O (stereo not shown) [Example I-2-a-47] | 3.20 |
| CCc1cc(C)cc(C)c1C1=C(O)C2(CCC3(CCCO3)CC2)OC1=O (single isomer, unassigned) [Example I-2-a-14] | 2.73 |
| Cc1cc(C)c(C2=C(O)C3(CCC4(CCCO4)CC3)OC2=O)cc1C (single isomer, unassigned) [Example I-2-a-48] | 2.99 |
| Cc1cc(C)c(-c2ccc(Cl)cc2)c(C)c1C1=C(O)C2(CCC3(CCCO3)CC2)OC1=O (single isomer, unassigned) [Example I-2-a-42] | 3.79 |
| Cc1cc(C2=C(O)C3(CCC4(CCCO4)CC3)OC2=O)c(Cl)cc1Cl (single isomer, unassigned) [Example I-2-a-41] | 3.14 |
| CCc1cc(Cl)cc(C)c1C1=C(O)C2(CCC3(CCCO3)CC2)OC1=O (single isomer, unassigned) [Example I-2-a-45] | 3.34 |

| SMILES | log P* |
| --- | --- |
| Cc1cc(C)c(C2=C(O)C3(CCC4(CCCO4)CC3)OC2=O)c(Br)c1 (single isomer, unassigned) [Example I-2-a-32] | 2.48 |
| Cc1ccc(-c2ccc(Cl)c(Cl)c2)cc1C1=C(O)C2(CCC3(CCCO3)CC2)OC1=O (stereo not shown) [Example I-2-a-12] | 3.74 |
| CCc1cc(Cl)cc(C)c1C1=C(O)C2(CCC3(CCCO3)CC2)OC1=O (single isomer, unassigned) [Example I-2-a-44] | 2.82 |
| CCc1cc(Br)cc(C)c1C1=C(O)C2(CCC3(CCCO3)CC2)OC1=O (single isomer, unassigned) [Example I-2-a-6] | 3.44 |
| CCc1cc(Cl)cc(CC)c1C1=C(O)C2(CCC3(CCCO3)CC2)OC1=O (single isomer, unassigned) [Example I-2-a-8] | 3.09 |
| Cc1ccc(-c2ccc(F)cc2)cc1C1=C(O)C2(CCC3(CCCO3)CC2)OC1=O (stereo not shown) [Example I-2-a-23] | 3.5 |
| Cc1ccc(-c2ccc(Cl)cc2)c(C)c1C1=C(O)C2(CCC3(CCCO3)CC2)OC1=O (stereo not shown) [Example I-2-a-19] | 4.06 |
| CCc1cc(C)cc(CC)c1C1=C(O)C2(CCC3(CCCO3)CC2)OC1=O (single isomer, unassigned) [Example I-2-a-16] | 2.99 |
| CCc1cc(Br)cc(C)c1C1=C(O)C2(CCC3(CCCO3)CC2)OC1=O (single isomer, unassigned) [Example I-2-a-29] | 3.22 |
| Cc1cc(C2=C(O)C3(CCC4(CCCO4)CC3)OC2=O)c(Cl)cc1Cl (single isomer, unassigned) [Example I-2-a-40] | 2.60 |
| CCc1cc(C)cc(C)c1C1=C(O)C2(CCC3(CCCO3)CC2)OC1=O (single isomer, unassigned) [Example I-2-a-15] | 3.21 |
| Cc1ccc(-c2ccc(Cl)cc2)cc1C1=C(O)C2(CCC3(CCCO3)CC2)OC1=O (stereo not shown) [Example I-2-a-25] | 3.87 |
| Cc1ccc(C)c(C2=C(O)C3(CCC4(CCCO4)CC3)OC2=O)c1 (single isomer, unassigned) [Example I-2-a-2] | 2.73 |
| CCc1cc(C)cc(Br)c1C1=C(O)C2(CCC3(CCCO3)CC2)OC1=O (single isomer, unassigned) [Example I-2-a-28] | 2.73 |
| Cc1cc(C2=C(O)C3(CCC4(CCCO4)CC3)OC2=O)c(C)cc1Br (single isomer, unassigned) [Example I-2-a-30] | 3.28 |
| Cc1cc(C)c(C2=C(O)C3(CCC4(CCCO4)CC3)OC2=O)c(C)c1 (single isomer, unassigned) [Example I-2-a-5] | 3.00 |
| Cc1ccc(-c2ccc(Cl)cc2)c(C)c1C1=C(O)C2(CCC3(CCCO3)CC2)OC1=O (stereo not shown) [Example I-2-a-18] | 3.52 |
| CCc1cc(Cl)cc(CC)c1C1=C(O)C2(CCC3(CCCO3)CC2)OC1=O (single isomer, unassigned) [Example I-2-a-9] | 3.62 |
| CCc1cc(Br)cc(Cl)c1C1=C(O)C2(CCC3(CCCO3)CC2)OC1=O (single isomer, unassigned) [Example I-2-a-36] | 2.77 |

same assay, conditions: HPLC, reverse-phase C 18, acidic range (pH 3.4), 55° C.

| SMILES | log P |
| --- | --- |
| CCOC(=O)OC1=C(c2c(C)cc(C)cc2C)C(=O)OC12CCC1(CCCO1)CC2 (stereo not shown) [Example I-2-c-2] | 4.69 |

same assay, conditions: compounds of formula (I-2-b)

| SMILES | log P* |
| --- | --- |
| COc1cccc(C)c1C1=C(OC(=O)C(C)C)C2(CCC3(CCCO3)CC2)OC1=O (stereo not shown) [Example I-2-b-18] | 3.75 |
| Cc1ccc(-c2ccc(F)cc2)cc1C1=C(OC(=O)C(C)C)C2(CCC3(CCCO3)CC2)OC1=O (stereo not shown) [Example I-2-b-9] | 4.83 |
| COc1cccc(C)c1C1=C(OC(=O)C(C)C)C2(CCC3(CCCO3)CC2)OC1=O (stereo not shown) [Example I-2-b-20] | 4.25 |
| CCc1cc(C)cc(CC)c1C1=C(OC(=O)C(C)C)C2(CCC3(CCCO3)CC2)OC1=O (stereo not shown) [Example I-2-b-22] | 5.17 |
| Cc1ccc(C)c(C2=C(OC(=O)C(C)C)C3(CCC4(CCCO4)CC3)OC2=O)c1 (stereo not shown) [Example I-2-b-5] | 4.22 |
| Cc1cc(C)c(-c2ccc(Cl)cc2)cc1C1=C(OC(=O)C(C)C)C2(CCC3(CCCO3)CC2)OC1=O (stereo not shown) [Example I-2-b-3] | 5.64 |
| COc1cc(C)cc(C)c1C1=C(OC(=O)C(C)C)C2(CCC3(CCCO3)CC2)OC1=O (stereo not shown) [Example I-2-b-2] | 4.60 |
| Cc1ccc(-c2ccc(Cl)cc2)cc1C1=C(OC(=O)C(C)C)C2(CCC3(CCCO3)CC2)OC1=O (stereo not shown) [Example I-2-b-13] | 5.29 |
| Cc1cc(C)c(C2=C(OC(=O)C(C)(C)C)C3(CCC4(CCCO4)CC3)OC2=O)c(C)c1 (stereo not shown) [Example I-2-b-14] | 4.96 |
| Cc1cc(C)c(-c2ccc(Cl)cc2)cc1C1=C(OC(=O)C(C)C)C2(CCC3(CCCO3)CC2)OC1=O (stereo not shown) [Example I-2-b-4] | 6.24 |
| Cc1cc(C)c(C2=C(OC(=O)C(C)C)C3(CCC4(CCCO4)CC3)OC2=O)c(C)c1 (stereo not shown) [Example I-2-b-7] | 4.52 |
| COc1cccc(C)c1C1=C(OC(=O)C(C)(C)C)C2(CCC3(CCCO3)CC2)OC1=O (stereo not shown) [Example I-2-b-19] | 4.16 |
| Cc1ccc(-c2ccc(Cl)cc2)c(C)c1C1=C(OC(=O)C(C)C)C2(CCC3(CCCO3)CC2)OC1=O (stereo not shown) [Example I-2-b-15] | 5.63 |
| Cc1ccc(C)c(C2=C(OC(=O)C(C)C)C3(CCC4(CCCO4)CC3)OC2=O)c1 (stereo not shown) [Example I-2-b-6] | 4.78 |
| CC(C)C(=O)OC1=C(c2cc(-c3ccc(Cl)cc3)ccc2Cl)C(=O)OC12CCC1(CCCO1)CC2 (stereo not shown) [Example I-2-b-12] | 5.26 |
| Cc1cc(C)c(C2=C(OC(=O)C(C)C)C3(CCC4(CCCO4)CC3)OC2=O)c(C)c1 (stereo not shown) [Example I-2-b-8] | 5.12 |
| CCc1cc(C)cc(CC)c1C1=C(OC(=O)C(C)(C)C)C2(CCC3(CCCO3)CC2)OC1=O (stereo not shown) [Example I-2-b-25] | 6.25 |
| Cc1ccc(-c2ccc(Cl)cc2)cc1C1=C(OC(=O)C(C)C)C2(CCC3(CCCO3)CC2)OC1=O (stereo not shown) [1-2-b-11] | 5.86 |
| CCc1cc(C)cc(CC)c1C1=C(OC(=O)C(C)C)C2(CCC3(CCCO3)CC2)OC1=O (stereo not shown) [Example I-2-b-24] | 5.79 |

same assay, conditions: reverse-phase HPLC column (C 18); HPLC, reverse-phase C 18, acidic range (pH 3.4), 55° C.; read-out: log P

| SMILES | chromatographic logP |
| --- | --- |
| CCOC(=O)OC1=C(c2c(C)cc(C)cc2C)C(=O)O[C@]12CC[C@]1(CCCO1)CC2 [Example I-2-c-1] | 4.09 |
| COc1cc(C)cc(C)c1C1=C(OC(=O)C(C)C)[C@]2(CC[C@@]3(CCCO3)CC2)OC1=O [Example I-2-b-1] | 4.12 |
